Test results from US20200163984A1, “USE OF ISOVALERYL SPIRAMYCIN I, II AND/OR III IN MANUFACTURING MEDICAMENT FOR TREATING AND/OR PREVENTING TUMOR, AND MEDICAMENT” (SHENYANG FUYANG PHARMACEUTICAL TECHNOLOGY CO., LTD., priority 2017, published 2020).
Converted amounts (≈) assume the structure as drawn.

What was measured:
[1] = system: transplanted tumor of human hepatoma cell HepG-2; assay: HepG-2 transplanted tumor in nude mice; conditions: for tumor volume and relative tumor volume compared with the model group: low, medium and high doses, P<0.05
Experimental: Then cell concentration was adjusted to 1×10^7/ml with matrigel, then each nude mouse was inoculated subcutaneously with 0.2 ml of cells at its right armpit and recorded as the first day of inoculation. When the tumor grows to be greater than or equal to 100 mm^3, the mice were randomly divided into 11 groups with 6 mice in each group: a model group, a cyclophosphamide group, isovaleryl spiramycin I groups with doses of 25, 50 and 100 mg/kg, isovaleryl spiramycin II groups with doses of 25, 50 and 100 mg/kg, and isovaleryl spiramycin III groups with doses of 25, 50 and 100 mg/kg. Each group was continuously administered intragastrically for 30 days with a dose of 20 ml/kg. The mice were sacrificed the next day after drug withdrawal and the indicators were tested. The long diameter and short diameter of the tumor, and the body weight of each mouse were recorded every 3 days from drug administration to nude mouse sacrifice.
The body weight of the nude mice and the long diameter (a) and short diameter (b) of the transplanted tumor were measured every 3 days, and the tumor volume (v), relative tumor volume (RTV) and relative tumor proliferation rate (T/C) are calculated respectively according to the following formulas, wherein V=a×b^2/2; RTV=V/V0 (V0 is the tumor volume before administration, V is the tumor volume before sacrifice), and T/C (%)=treatment group RTV/model control group RTV×100%.
Each mouse was weighed and sacrificed. After the tumor was completely stripped off from the body of the mouse, the non-tumor tissues such as blood stains and fat were removed to weigh the tumor and calculate the tumor growth inhibition rate. The average tumor weight of each group of mice is used as an indicator of efficacy. Tumor growth inhibition rate (%)=(1−the average tumor weight of the treatment group/the average tumor weight of the model group)×100%.

[2] = system: human promyelocytic leukemia cell HL-60; conditions: HL-60, MTT, 48 h
Experimental: (§1) The purpose of the assay is to evaluate the in vitro cell proliferation inhibition or cytotoxic activity of a tested sample.
(§2) U937 and HL-60 were suspension cells, and cells in a logarithmic growth phase were selected and prepared into a 2×10^5/ml cell suspension by a RPMI 1640 culture medium containing 10% fetal bovine serum. And the cell suspension was inoculated in a 96-well culture plate, and each well was 50 μL and the 96-well culture plate was cultured at 37° C. and 5% CO2 for 24 hours. 50 μL of a culture medium containing different concentrations of the tested sample isovaleryl spiramycin I, isovaleryl spiramycin II, or isovaleryl spiramycin III was added in the experimental group, while a culture medium containing the same volume of solvent was added into the control group. Each group was set up with 3 parallel wells that were cultured at 37° C. and 5% CO2 for 48 h. And 10 μL of freshly prepared medium containing 5 mg/ml MTT was added into each well for continuous incubation for 4 hours at 37° C. The crystals were dissolved in 100 μL of a triple solution (SDS 10 g, 10 M HCl 0.1 mL, isobutanol 5 mL, diluted with distilled water to 100 mL), and incubated at 37° C. for 12 hours. The optical density value was measured at 492 nm with a microplate reader.
(§3) The inhibition rate of the medicament on tumor cell growth is calculated according to the following formula:
(§4) Tumor cell growth inhibition rate (%)=[A492 (negative control)−A492 (dosing group)]/A492 (negative control)×100%
(§5) And the half-inhibitory concentration (IC50) of the sample is determined therefrom.

[3] = system: human tissue lymphoma cell U937; conditions: U937, MTT, 48 h
Experimental: as §1, §2, §3, §4, §5

[4] = HepG-2 nude mice, 30 mg/kg, d30
[5] = HepG-2, high dose (100 mg/kg in method) i.g. 30 days
[6] = HepG-2, low dose (25 mg/kg in method) i.g. 30 days
[7] = HepG-2, medium dose (50 mg/kg in method) i.g. 30 days
[8] = HepG-2 nude mice, 25 mg/kg, d30
[9] = HepG-2 nude mice, 50 mg/kg, d30
[10] = HepG-2 nude mice, 100 mg/kg, d1
[11] = HepG-2 nude mice, 100 mg/kg, d30

| IC50 [2] [µg/mL] | IC50 [3] [µg/mL] | Compound | Relative Tumor Proliferation Rate (T/C) [1, 5] [%] | tumor growth inhibition rate [1, 5] [%] | Relative Tumor Proliferation Rate (T/C) [1, 6] [%] | tumor growth inhibition rate [1, 6] [%] | tumor volume and relative tumor volume compared with the model group ([1]; HepG-2) | Relative Tumor Proliferation Rate (T/C) [1, 7] [%] | tumor growth inhibition rate [1, 7] [%] | Inhibition Rate (%) ([1]; HepG-2 nude mice, 25 mg/kg) | Relative Tumor Proliferation Rate (T/C) ([1]; HepG-2 nude mice, 25 mg/kg) [%] | Relative Tumor Volume (RTV) ([1]; HepG-2 nude mice, 25 mg/kg) | Tumor Weight ([1]; HepG-2 nude mice, 25 mg/kg) [g] | Tumor Volume (mm3) (d 1) ([1]; HepG-2 nude mice, 25 mg/kg, d1) | Tumor Volume (mm3) (d30) [1, 8] | Inhibition Rate (%) ([1]; HepG-2 nude mice, 50 mg/kg) | Relative Tumor Proliferation Rate (T/C) ([1]; HepG-2 nude mice, 50 mg/kg) [%] | Relative Tumor Volume (RTV) ([1]; HepG-2 nude mice, 50 mg/kg) | Tumor Weight ([1]; HepG-2 nude mice, 50 mg/kg) [g] | Tumor Volume (mm3) (d 1) ([1]; HepG-2 nude mice, 50 mg/kg, d1) | other results |
| --- | --- | --- | --- | --- | --- | --- | --- | --- | --- | --- | --- | --- | --- | --- | --- | --- | --- | --- | --- | --- | --- |
| – | – | O=P1(N(CCCl)CCCl)NCCCO1 (centres unmarked) [Cyclophosphamide, cyclophosphamide, reference compound] | – | – | – | – | – | – | – | – | – | – | – | – | – | – | – | – | – | – | Inhibition Rate (%) ([1]; HepG-2 nude mice, 30 mg/kg): 71.04%; Relative Tumor Proliferation Rate (T/C) ([1]; HepG-2 nude mice, 30 mg/kg): 39.27%; Relative Tumor Volume (RTV) ([1]; HepG-2 nude mice, 30 mg/kg): 6.58 ± 2.18; Tumor Weight ([1]; HepG-2 nude mice, 30 mg/kg): 0.07 ± 0.38 g; Body Weight (g) (d1) ([1]; HepG-2 nude mice, 30 mg/kg, d1): 21.89 ± 1.84 g; Tumor Volume (mm3) (d 1) ([1]; HepG-2 nude mice, 30 mg/kg, d1): 119.66 ± 7.65 mm3; Body Weight (g) (d30) [1, 4]: 19.67 ± 1.49 g; Tumor Volume (mm3) (d30) [1, 4]: 792.56 ± 287.31 mm3 |
| 16.52 ± 1.26 (≈ 17.8 µM) | 10.88 ± 0.05 (≈ 11.7 µM) | CO[C@@H]1[C@@H](O[C@@H]2O[C@H](C)[C@@H](O[C@H]3C[C@@](C)(O)[C@@H](OC(=O)CC(C)C)[C@H](C)O3)[C@H](N(C)C)[C@H]2O)[C@@H](CC=O)C[C@@H](C)[C@@H](O[C@H]2CC[C@H](N(C)C)[C@@H](C)O2)/C=C/C=C/C[C@@H](C)OC(=O)C[C@H]1O [Isovaleryl spiramycin I, isovaleryl spiramycin I] | 27.49 | 68.22 | 65.03 | 24.43 | significantly lower | 42.12 | 57.93 | 24.43 | 65.03 | 10.89 ± 2.67 | 1.84 ± 0.23 | 114.02 ± 11.68 | 1248.33 ± 337.59 | 57.93 | 42.12 | 7.05 ± 3.35 | 1.02 ± 0.45 | 122.31 ± 4.68 | Tumor Volume (mm3) (d30) [1, 9]: 851.37 ± 371.80 mm3; Inhibition Rate (%) ([1]; HepG-2 nude mice, 100 mg/kg): 68.22%; Relative Tumor Proliferation Rate (T/C) ([1]; HepG-2 nude mice, 100 mg/kg): 27.49%; Relative Tumor Volume (RTV) ([1]; HepG-2 nude mice, 100 mg/kg): 4.60 ± 3.39; Tumor Weight ([1]; HepG-2 nude mice, 100 mg/kg): 0.77 ± 0.44 g; Tumor Volume (mm3) (d 1) [1, 10]: 110.06 ± 9.58 mm3; Tumor Volume (mm3) (d30) [1, 11]: 481.16 ± 326.94 mm3; mouse weight compared with the model group ([1]; mouse, in vivo): no significant changes; Body Weight (g) (d1) ([1]; mouse, in vivo, 25 mg/kg): 21.36 ± 1.67 g; Body Weight (g) (d30) ([1]; mouse, in vivo, 25 mg/kg): 23.24 ± 1.33 g; Body Weight (g) (d1) ([1]; mouse, in vivo, 50 mg/kg): 21.47 ± 1.58 g; Body Weight (g) (d30) ([1]; mouse, in vivo, 50 mg/kg): 23.64 ± 1.67 g; Body Weight (g) (d1) ([1]; mouse, in vivo, 100 mg/kg): 21.37 ± 1.36 g; Body Weight (g) (d30) ([1]; mouse, in vivo, 100 mg/kg): 22.867 ± 1.57 g |
| 29.39 ± 1.82 (≈ 30.3 µM) | 34.92 ± 0.81 (≈ 36 µM) | COC1C(OC(C)=O)CC(=O)OC(C)CC=CC=CC(OC2CCC(N(C)C)C(C)O2)C(C)CC(CC=O)C1OC1OC(C)C(OC2CC(C)(O)C(OC(=O)CC(C)C)C(C)O2)C(N(C)C)C1O (centres unmarked) [Isovaleryl spiramycin II, isovaleryl spiramycin II] | 39.31 | 61.56 | 81.03 | 21.07 | significantly lower | 57.02 | 31.43 | 21.07 | 81.03 | 13.57 ± 1.64 | 1.92 ± 0.32 | 122.82 ± 4.10 | 1666.11 ± 202.07 | 31.43 | 57.02 | 9.55 ± 2.84 | 1.67 ± 0.32 | 118.60 ± 4.30 | Tumor Volume (mm3) (d30) [1, 9]: 1127.90 ± 319.12 mm3; Inhibition Rate (%) ([1]; HepG-2 nude mice, 100 mg/kg): 61.56%; Relative Tumor Proliferation Rate (T/C) ([1]; HepG-2 nude mice, 100 mg/kg): 39.31%; Relative Tumor Volume (RTV) ([1]; HepG-2 nude mice, 100 mg/kg): 6.58 ± 2.48; Tumor Weight ([1]; HepG-2 nude mice, 100 mg/kg): 0.93 ± 0.41 g; Tumor Volume (mm3) (d 1) [1, 10]: 118.70 ± 7.20 mm3; Tumor Volume (mm3) (d30) [1, 11]: 783.73 ± 312.41 mm3; mouse weight compared with the model group ([1]; mouse, in vivo): no significant changes; Body Weight (g) (d1) ([1]; mouse, in vivo, 25 mg/kg): 21.98 ± 1.74 g; Body Weight (g) (d30) ([1]; mouse, in vivo, 25 mg/kg): 23.35 ± 1.83 g; Body Weight (g) (d1) ([1]; mouse, in vivo, 50 mg/kg): 20.75 ± 1.86 g; Body Weight (g) (d30) ([1]; mouse, in vivo, 50 mg/kg): 22.22 ± 1.62 g; Body Weight (g) (d1) ([1]; mouse, in vivo, 100 mg/kg): 21.48 ± 1.98 g; Body Weight (g) (d30) ([1]; mouse, in vivo, 100 mg/kg): 22.45 ± 1.28 g |
| 21.38 ± 1.75 (≈ 21.7 µM) | 15.59 ± 0.08 (≈ 15.9 µM) | CCC(=O)O[C@@H]1CC(=O)O[C@H](C)C/C=C/C=C/[C@H](O[C@H]2CC[C@H](N(C)C)[C@@H](C)O2)[C@H](C)C[C@H](CC=O)[C@H](O[C@@H]2O[C@H](C)[C@@H](O[C@H]3C[C@@](C)(O)[C@@H](OC(=O)CC(C)C)[C@H](C)O3)[C@H](N(C)C)[C@H]2O)[C@H]1OC [Isovaleryl spiramycin III, isovaleryl spiramycin III] | 32.71 | 63.28 | 64.69 | 38.92 | significantly lower | 43.18 | 60.54 | 38.92 | 64.69 | 10.83 ± 2.47 | 1.48 ± 0.42 | 116.67 ± 8.32 | 1261.48 ± 283.95 | 60.54 | 43.18 | 7.23 ± 2.57 | 0.96 ± 0.44 | 119.43 ± 10.86 | Tumor Volume (mm3) (d30) [1, 9]: 852.87 ± 293.29 mm3; Inhibition Rate (%) ([1]; HepG-2 nude mice, 100 mg/kg): 63.28%; Relative Tumor Proliferation Rate (T/C) ([1]; HepG-2 nude mice, 100 mg/kg): 32.71%; Relative Tumor Volume (RTV) ([1]; HepG-2 nude mice, 100 mg/kg): 5.48 ± 3.19; Tumor Weight ([1]; HepG-2 nude mice, 100 mg/kg): 0.89 ± 0.46 g; Tumor Volume (mm3) (d 1) [1, 10]: 118.26 ± 6.57 mm3; Tumor Volume (mm3) (d30) [1, 11]: 641.99 ± 364.25 mm3; mouse weight compared with the model group ([1]; mouse, in vivo): no significant changes; Body Weight (g) (d1) ([1]; mouse, in vivo, 25 mg/kg): 21.07 ± 1.24 g; Body Weight (g) (d30) ([1]; mouse, in vivo, 25 mg/kg): 23.94 ± 1.67 g; Body Weight (g) (d1) ([1]; mouse, in vivo, 50 mg/kg): 21.25 ± 1.86 g; Body Weight (g) (d30) ([1]; mouse, in vivo, 50 mg/kg): 24.36 ± 1.53 g; Body Weight (g) (d1) ([1]; mouse, in vivo, 100 mg/kg): 20.47 ± 2.24 g; Body Weight (g) (d30) ([1]; mouse, in vivo, 100 mg/kg): 23.64 ± 1.44 g |
